Experimental data from publication PMC6414029, “Utilisation of the Prestwick Chemical Library to identify drugs that inhibit the growth of mycobacteria” (PLoS ONE, 2019).
Converted amounts (≈) assume the structure as drawn. Structures can show the parent of a compound that is named as a salt. Where two headings read alike, the source gives them in different places.

Assays:
M. smegmatis [1] = test: microbe, parasite or virus in culture; type: cell-based, Mycobacterium smegmatis; conditions: liquid medium
M. smegmatis [2] = test: MIC determination on solid agar; type: cell-based, Mycobacterium smegmatis; conditions: for MIC: read-out: Solid MIC
Experimental: Drugs were diluted from a 10mM stock, mixed individually in 2 mLs of molten 7H10 agar and dispensed in square partitioned petri plates. Plates were incubated at 37°C and solid MIC was determined based on absence of colonies.

BCG [3] = test: microbe, parasite or virus in culture; type: cell-based, Mycobacterium bovis BCG; conditions: for MIC: Mycobacterium tuberculosis variant bovis BCG, BCG, read-out: Liquid MIC
BCG [4] = test: microbe, parasite or virus in culture; type: cell-based, Mycobacterium bovis BCG; conditions: for MIC: Mycobacterium tuberculosis variant bovis BCG
M. tuberculosis H37Rv = test: Alamar Blue (resazurin) MIC assay; type: cell-based, Mycobacterium tuberculosis; conditions: liquid growth media
Experimental: To investigate the effects of repurposed compounds on growth of M. tuberculosis H37Rv using an Alamar Blue based MIC assay using the resazurin reagent. This assay was performed in 7H9 medium containing Middlebrook broth and 0.5% glycerol and supplemented with oleic acid, albumin, dextrose, and catalase. Clear- 96-well plates were inoculated with 100 μL of drug diluted with 90 μl of 7H9 medium and 10 μL DMSO. Serial 3-fold dilutions of each drug in 100 μL of 7H9 medium were prepared at various ranges. Growth controls containing no antibiotic and sterility controls without inoculation were also included. 200 μL of sterile deionized water was added to the outer perimeter wells to prevent evaporation during plate incubation. Plates were incubated plate at 37°C for 3–4 days. After incubation, the plates were removed and 10 μL of resazurin (0.02% w/v) was added to each well that contained bacteria. Assay plates were reincubated at 37°C for 24–48 hours and visually assessed for colour development. OD 570 nm readings were taken to provide further quantitation provide an interpretation of the dose response of the bacterium to repurposed compounds.

HepG2 cells = test: HepG2 cytotoxicity assay (CellTitre-Glo); type: cell-based
Experimental: Actively growing HepG2 cells were removed from a T-175 tissue culture flask with 5 mL of Eagle’s MEM containing 10% FBS/1%NEAA/1% Penicillin and Streptomycin) and mixed with gentle pipetting. […] The cell suspension was added to 250 mL of the same medium at a final density of […]. […] Plates were allowed to incubate at 37°C at a relative humidity of 80% and 5% CO2 for 48 hours. After incubation, the plates were allowed to equilibrate at room temperature for 30 mins before 25 μL of CellTitre-Glo (Promega) reagent was added to each well using a multichannel pipette. Plates were left at room temperature for 30 mins before relative luminescence was read using a BMG Labtech POLARstar Omega plate reader.

[5] = system: BCG over-expressing EchA12; test: microbe, parasite or virus in culture; type: cell-based, Mycobacterium bovis BCG
BCG over-expressing AroB = test: microbe, parasite or virus in culture; type: cell-based, Mycobacterium bovis BCG
[6] = Mycolicibacterium smegmatis, M. smegmatis, 7H10 solid agar, absence of colonies
[7] = read-out: Solid MIC, BCG, 7H10 solid agar, absence of colonies
[8] = read-out: Solid MIC, BCG, solid agar, values given in mM
[9] = M. smegmatis, 7H10 solid agar, absence of colonies

Row | SMILES | MIC (M. smegmatis [1]; Mycolicibacterium smegmatis) | MIC (M. smegmatis [1]) | MIC (M. smegmatis [2]; [6]) | Liquid MIC (BCG [3]) | MIC (BCG [3]) | MIC (BCG [4]; [7]) | other results
1 | CCCCC(CC)CNC(=N)NC(=N)NCCCCCCNC(=N)NC(=N)NCC(CC)CCCC (stereo not drawn) [Alexidine] | 6.15 µM (≈ 3.13 µg/mL) | – | – | – | – | – | –
2 | CN1CCc2cccc3c2[C@H]1Cc1ccc(O)c(O)c1-3 [Apomorphine] | – | 241.7 µM (≈ 64.6 µg/mL) | 625 µM (≈ 167 µg/mL) | – | – | – | –
3 | COc1ccc(CCN2CCC(Nc3nc4ccccc4n3Cc3ccc(F)cc3)CC2)cc1 [Astemizole] | – | – | – | 17.78 µM | 17.8 µM (≈ 8.16 µg/mL) | 0.05 mM (≈ 22.9 µg/mL) | MIC (BCG [4]; [8]): ~0.05 mM (≈ 22.9 µg/mL)
4 | CC(=O)OC[C@H]1O[C@@H]([S-])[C@H](OC(C)=O)[C@@H](OC(C)=O)[C@@H]1OC(C)=O.CCP(CC)CC.[Au+] [Auranofin] | – | 0.51 µM | – | – | – | – | Solid MIC relative to liquid MIC (M. smegmatis [2]; M. smegmatis): 12 fold; MIC (M. smegmatis [2]; [9]): 6.0 µM; MIC (M. tuberculosis H37Rv): 0.27 µM; IC50 (HepG2 cells; 48 hours): 3 µM
5 | [H]/N=C(\N/C(=N/[H])NCCCCCCNC(=N)NC(=N)Nc1ccc(Cl)cc1)Nc1ccc(Cl)cc1 [Chlorhexidine] | 1.98 µM (≈ 1 µg/mL) | 1.95 µM (≈ 0.986 µg/mL) | 16 µM (≈ 8.09 µg/mL) | – | – | – | –
6 | CCN(CC)CCOc1ccc(C(=C(Cl)c2ccccc2)c2ccccc2)cc1 [Clomiphene citrate] | 9.03 to 26.6 µM | 9.03 µM | 37.5 µM | – | – | – | MIC (M. tuberculosis H37Rv; Mycobacterium tuberculosis): 7.59 µM
7 | O=c1c2ccccc2[se]n1-c1ccccc1 [Ebselen] | 10.3 µM (≈ 2.82 µg/mL) | – | – | – | – | – | MIC (M. tuberculosis H37Rv; Mycobacterium tuberculosis): 18.5 µM (≈ 5.08 µg/mL); IC50 (HepG2 cells; Homo sapiens, HepG2, 48 hours): 45 µM
8 | CC(NCCC(c1ccccc1)c1ccccc1)c1ccccc1 (stereo not drawn) [Fendiline hydrochloride] | 77 to 828 µM | 77.57 µM | 15.6 µM | – | – | – | –
9 | CS(=O)(=O)c1ccc([C@@H](O)[C@@H](CF)NC(=O)C(Cl)Cl)cc1 [Florfenicol] | – | – | – | 0.67 µM | 0.7 µM (≈ 0.251 µg/mL) | ~0.005 mM (≈ 1.79 µg/mL) | Solid MIC relative to liquid MIC (BCG [4]): 5 fold; Solid MIC (BCG [4]; 7H10 solid agar, absence of colonies, listed as Florfenciol): 6 µM; MIC (M. tuberculosis H37Rv; Mycobacterium tuberculosis): 25.4 µM (≈ 9.1 µg/mL); IC50 (HepG2 cells; Homo sapiens, HepG2, 48 hours): > 250 µM; MIC in the absence of EchA12 over-expression, compared with wild-type BCG [5]: unchanged; MIC ([5]; Mycobacterium tuberculosis variant bovis BCG, BCG, read-out: MIC upon over-expression of EchA12): > 12 µM
10 | O=C1NCN(c2ccccc2)C12CCN(CCCC(c1ccc(F)cc1)c1ccc(F)cc1)CC2 [Fluspirilene] | – | 827.5 µM (≈ 394 µg/mL) | – | – | – | – | –
11 | Fc1ccc(C(OCCN2CCN(CCCc3ccccc3)CC2)c2ccc(F)cc2)cc1 [GBR 12909, Vanoxerine] | 18.6 µM (≈ 8.38 µg/mL) | – | 62.5 µM (≈ 28.2 µg/mL) | – | 20.5 µM (≈ 9.24 µg/mL) | 0.0282 mM (≈ 12.7 µg/mL) | MIC (M. tuberculosis H37Rv; Mycobacterium tuberculosis): 26.6 µM (≈ 12 µg/mL); IC50 (HepG2 cells; Homo sapiens, HepG2, 48 hours): 55 µM; MIC in the absence of AroB over-expression, compared with wild-type BCG (BCG over-expressing AroB): unchanged; MIC (BCG over-expressing AroB; Mycobacterium tuberculosis variant bovis BCG, BCG, read-out: MIC upon over-expression of AroB): > 50 µM
12 | Cc1cnc(C(=O)NCCc2ccc(S(=O)(=O)NC(=O)NC3CCCCC3)cc2)cn1 [Glipizide] | – | – | – | 191.10 µM | 191 µM (≈ 85.1 µg/mL) | – | –
13 | CN1C2CCCC1CC(NC(=O)c1nn(C)c3ccccc13)C2 (stereo not drawn) [Granisteron, Granisetron] | – | – | – | 210.60 µM | 211 µM (≈ 65.8 µg/mL) | ≥ 0.5 mM | MIC (BCG [4]; [8]): > 0.5 mM
14 | CO[C@@H]1[C@@H](O[C@@H]2O[C@H](C)[C@@H](O[C@H]3C[C@@](C)(O)[C@@H](OC(=O)CC(C)C)[C@H](C)O3)[C@H](N(C)C)[C@H]2O)[C@@H](CC=O)C[C@@H](C)[C@@H](O)/C=C/C=C/C[C@@H](C)OC(=O)C[C@H]1OC(C)=O [Josamycin] | – | – | – | 0.10 µM | 0.1 µM (≈ 0.0828 µg/mL) | > 0.1 mM | –
15 | C=C1c2c(Cl)ccc(O)c2C(=O)C2=C(O)[C@]3(O)C(=O)C(C(N)=O)=C(O)[C@@H](N(C)C)[C@@H]3[C@@H](O)[C@H]12 [Meclocyline sulfosalicylate, meclocycline sulfosalicylate] | 0.1 µM (≈ 0.0477 µg/mL) | – | – | – | – | – | MIC (M. smegmatis [2]; [9]): 0.20 µM (≈ 0.0954 µg/mL); MIC (M. smegmatis [2]; Mycolicibacterium smegmatis): 0.2 µM (≈ 0.0954 µg/mL)
16 | COC(=O)C1=C(C)NC(C)=C(C(=O)OCC(C)C)C1c1ccccc1[N+](=O)[O-] (stereo not drawn) [Nisoldipine] | – | 396.2 µM (≈ 154 µg/mL) | 100 µM (≈ 38.8 µg/mL) | – | – | – | –
